Experimental data as given in PubChem BioAssay (NCI).
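GI50 = concentration required for 50% inhibition of growth. Definition used: TGI = concentration required for complete inhibition of growth.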

Key:
Assay in all cases: inhibition of tumour cell growth, NCI panel, 384-well format
[1] = system: KM12 colon
[2] = system: RXF 393 renal
[3] = system: EKVX NSCLC
[4] = system: HCT-116 colon
[5] = system: TK-10 renal
[6] = system: SNB-75 CNS
[7] = system: MDA-MB-435 melanoma
[8] = system: PC-3 prostate
[9] = system: HS 578T breast
[10] = system: HCT-15 colon
[11] = system: MDA-MB-231 breast
[12] = system: HOP-62 NSCLC
[13] = system: ACHN renal
[14] = system: SK-MEL-28 melanoma
[15] = system: SF-295 CNS
[16] = system: BT-549 breast
[17] = system: NCI/ADR-RES ovarian
[18] = system: OVCAR-5 ovarian
[19] = system: HT29 colon
[20] = system: HOP-92 NSCLC
[21] = system: NCI-H226 lung
[22] = system: SNB-19 CNS
[23] = system: NCI-H522 lung
[24] = system: SF-268 CNS
[25] = system: DU-145 prostate
[26] = system: OVCAR-8 ovarian
[27] = system: A498 renal
[28] = system: UACC-257 melanoma
[29] = system: SF-539 CNS
[30] = system: SN12C renal
[31] = system: M14 melanoma
[32] = system: SR leukemia
[33] = system: IGROV1 ovarian
[34] = system: COLO 205 colon
[35] = system: MDA-MB-468 breast
[36] = system: HCC-2998 colon
[37] = system: U251 glioblastoma
[38] = system: NCI-H460 NSCLC
[39] = system: NCI-H322M lung
[40] = system: RPMI-8226 leukemia
[41] = system: SK-MEL-5 melanoma
[42] = system: MCF7 breast
[43] = system: CAKI-1 renal
[44] = system: UACC-62 melanoma
[45] = system: MALME-3M melanoma
[46] = system: OVCAR-3 ovarian
[47] = system: SK-OV-3 ovarian
[48] = system: OVCAR-4 ovarian
[49] = system: NCI-H23 lung
[50] = system: A549 NSCLC
[51] = system: MOLT-4 leukemia
[52] = system: LOX IMVI melanoma
[53] = system: T-47D breast
[54] = system: HL-60(TB) leukemia

SMILES: COc1ccc(COc2cc3oc(=O)c4cc(C(C)O)ccc4c3cc2OC)cc1 (centres undefined)
- GI50 [1]: 8.27 µM
- TGI [1]: > 100 µM
- GI50 [2]: 5.55 µM
- TGI [2]: 19.5 µM
- GI50 [3]: 12.2 µM
- TGI [3]: 43.2 µM
- GI50 [4]: 9.41 µM
- TGI [4]: > 100 µM
- GI50 [5]: 10.5 µM
- TGI [5]: 25.6 µM
- GI50 [6]: 6.65 µM
- TGI [6]: 20.3 µM
- GI50 [7]: 2.09 µM
- TGI [7]: 4.71 µM
- GI50 [8]: 24.9 µM
- TGI [8]: 93.1 µM
- GI50 [9]: 5.56 µM
- TGI [9]: 19.3 µM
- GI50 [10]: 3.57 µM
- TGI [10]: > 100 µM
- GI50 [11]: 20.3 µM
- TGI [11]: 77.5 µM
- GI50 [12]: 8.11 µM
- TGI [12]: 24.5 µM
- GI50 [13]: 23 µM
- TGI [13]: 61.2 µM
- GI50 [14]: 55.3 µM
- TGI [14]: > 100 µM
- GI50 [15]: 10.4 µM
- TGI [15]: 30.6 µM
- GI50 [16]: 6.81 µM
- TGI [16]: 20.5 µM
- GI50 [17]: 4.8 µM
- TGI [17]: 59.4 µM
- GI50 [18]: 61.2 µM
- TGI [18]: > 100 µM
- GI50 [19]: 6.91 µM
- TGI [19]: > 100 µM
- GI50 [20]: 11.3 µM
- TGI [20]: 30.1 µM
- GI50 [21]: 15.2 µM
- TGI [21]: 33.8 µM
- GI50 [22]: 7.73 µM
- TGI [22]: 20.8 µM
- GI50 [23]: 5.04 µM
- TGI [23]: 16.4 µM
- GI50 [24]: 4.6 µM
- TGI [24]: 16 µM
- GI50 [25]: 41.6 µM
- TGI [25]: > 100 µM
- GI50 [26]: 12.6 µM
- TGI [26]: 54.2 µM
- GI50 [27]: 12.2 µM
- TGI [27]: 35 µM
- GI50 [28]: 24.3 µM
- TGI [28]: 94.6 µM
- GI50 [29]: 7.79 µM
- TGI [29]: 20.6 µM
- GI50 [30]: 20 µM
- TGI [30]: 90.1 µM
- GI50 [31]: 8.95 µM
- TGI [31]: > 100 µM
- GI50 [32]: 1.87 µM
- TGI [32]: 5.69 µM
- GI50 [33]: 15.3 µM
- TGI [33]: 35.7 µM
- GI50 [34]: > 100 µM
- TGI [34]: > 100 µM
- GI50 [35]: 4.9 µM
- TGI [35]: 25.2 µM
- GI50 [36]: 14.6 µM
- TGI [36]: > 100 µM
- GI50 [37]: 7.43 µM
- TGI [37]: 24.8 µM
- GI50 [38]: 5.65 µM
- TGI [38]: 85.9 µM
- GI50 [39]: 20.4 µM
- TGI [39]: 71.4 µM
- GI50 [40]: 16.3 µM
- TGI [40]: > 100 µM
- GI50 [41]: 3.62 µM
- TGI [41]: 12.5 µM
- GI50 [42]: 5.21 µM
- TGI [42]: 22.2 µM
- GI50 [43]: 18.6 µM
- TGI [43]: 60.8 µM
- GI50 [44]: 8.49 µM
- TGI [44]: 22.8 µM
- GI50 [45]: 15.8 µM
- TGI [45]: > 100 µM
- GI50 [46]: 10.1 µM
- TGI [46]: 24.7 µM
- GI50 [47]: 3.89 µM
- TGI [47]: 21.2 µM
- GI50 [48]: 3.41 µM
- TGI [48]: 12.3 µM
- GI50 [49]: 11.9 µM
- TGI [49]: 36.9 µM
- GI50 [50]: 18.6 µM
- TGI [50]: > 100 µM
- GI50 [51]: 5.6 µM
- TGI [51]: > 100 µM
- GI50 [52]: 17 µM
- TGI [52]: > 100 µM
- GI50 [53]: 10.6 µM
- TGI [53]: 61.5 µM

SMILES: N#CCNC(=O)c1ccc(-c2ccnc(Nc3ccc(N4CCOCC4)cc3)n2)cc1
- GI50 [1]: 3.51 µM
- TGI [1]: 74.1 µM
- GI50 [2]: 1.61 µM
- TGI [2]: 3.26 µM
- GI50 [3]: 2.93 µM
- TGI [3]: 16.8 µM
- GI50 [4]: 1.51 µM
- TGI [4]: 3.91 µM
- GI50 [5]: 1.25 µM
- TGI [5]: 3.27 µM
- GI50 [6]: 2.52 µM
- TGI [6]: 15.5 µM
- GI50 [7]: 4.02 µM
- TGI [7]: 21.5 µM
- GI50 [8]: 2.9 µM
- TGI [8]: 11.8 µM
- GI50 [9]: 1.32 µM
- TGI [9]: 3.33 µM
- GI50 [10]: 3.02 µM
- TGI [10]: 10.7 µM
- GI50 [11]: 1.89 µM
- TGI [11]: 16.8 µM
- GI50 [12]: 1.81 µM
- TGI [12]: 4.09 µM
- GI50 [13]: 1.27 µM
- TGI [13]: 4.14 µM
- GI50 [14]: 6.23 µM
- TGI [14]: 50.8 µM
- GI50 [15]: 4.06 µM
- TGI [15]: 17 µM
- GI50 [16]: 1.15 µM
- TGI [16]: 2.46 µM
- GI50 [17]: 21.4 µM
- TGI [17]: > 100 µM
- GI50 [18]: 2.63 µM
- TGI [18]: 5.71 µM
- GI50 [19]: 4.15 µM
- TGI [19]: 24.6 µM
- GI50 [20]: 6.94 µM
- TGI [20]: 29 µM
- GI50 [21]: 1.43 µM
- TGI [21]: 3.66 µM
- GI50 [22]: 7.84 µM
- TGI [22]: 28.3 µM
- GI50 [23]: 1.64 µM
- TGI [23]: 6.45 µM
- GI50 [24]: 2.12 µM
- TGI [24]: 6.6 µM
- GI50 [25]: 1.55 µM
- TGI [25]: 3.99 µM
- GI50 [26]: 3.68 µM
- TGI [26]: 17.6 µM
- GI50 [27]: 1.14 µM
- TGI [27]: 2.53 µM
- GI50 [28]: 3.19 µM
- TGI [28]: 8.82 µM
- GI50 [29]: 2.12 µM
- TGI [29]: 10 µM
- GI50 [30]: 0.787 µM
- TGI [30]: 3.94 µM
- GI50 [31]: 6.27 µM
- TGI [31]: 51.2 µM
- GI50 [32]: 0.468 µM
- TGI [32]: 1.29 µM
- GI50 [33]: 1.42 µM
- TGI [33]: 3.91 µM
- GI50 [34]: 4.24 µM
- TGI [34]: 14.8 µM
- GI50 [35]: 1.37 µM
- TGI [35]: 3.2 µM
- GI50 [36]: 1.93 µM
- TGI [36]: 4.18 µM
- GI50 [37]: 2.28 µM
- TGI [37]: 5.9 µM
- GI50 [38]: 1.06 µM
- TGI [38]: 2.5 µM
- GI50 [39]: 2.72 µM
- TGI [39]: 10.8 µM
- GI50 [40]: 1.23 µM
- TGI [40]: 2.87 µM
- GI50 [41]: 2.16 µM
- TGI [41]: 9.34 µM
- GI50 [42]: 2.24 µM
- TGI [42]: 8.44 µM
- GI50 [43]: 1.23 µM
- TGI [43]: 3.19 µM
- GI50 [44]: 3.57 µM
- TGI [44]: 15.3 µM
- GI50 [45]: 3.05 µM
- TGI [45]: 23.5 µM
- GI50 [46]: 4.64 µM
- TGI [46]: 19 µM
- GI50 [47]: 2.73 µM
- TGI [47]: 20.7 µM
- GI50 [48]: 3.59 µM
- TGI [48]: 11.1 µM
- GI50 [49]: 2.33 µM
- TGI [49]: 13.6 µM
- GI50 [50]: 3.19 µM
- TGI [50]: 13.7 µM
- GI50 [51]: 2.07 µM
- TGI [51]: 3.99 µM
- GI50 [52]: 1.7 µM
- TGI [52]: 4.06 µM
- GI50 [53]: 11 µM
- TGI [53]: 39.9 µM
- GI50 [54]: 1.55 µM
- TGI [54]: 2.89 µM
